# Patent US4868321A, “Isothiocyanate intermediates” (FMC Corporation, priority 1988, dated 1989)
# Key:
# Format in all cases: in vivo
# Cotton [1] = assay: Preemergence Herbicidal Activity, Cotton
# How it was run: (§1)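 Percent control scored after pre- or postemergence treatment at rates in kg/ha, using test compounds generally formulated in 50/50 acetone/water.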
# Soybean [2] = assay: Preemergence Herbicidal Activity, Soybean
# How it was run: (§2)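 Test compounds are dosed on a per-area basis (kg/ha); plant response is reported as % C.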
# Wheat [3] = assay: Preemergence Herbicidal Activity, Wheat; settings: Triticum aestivum, pre-emergence
# How it was run: as §2
# Barnyardgrass [4] = assay: Preemergence Herbicidal Activity, Barnyardgrass; settings: Echinochloa crus-galli, pre-emergence
# How it was run: (§3)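 Herbicidal response was graded as percent control. Compound rates were in kg/ha.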
# Green Foxtail [5] = assay: Preemergence Herbicidal Activity, Green Foxtail; settings: Setaria viridis, pre-emergence
# How it was run: as §3
# Johnsongrass [6] = assay: Preemergence Herbicidal Activity, Johnsongrass; settings: Sorghum halepense, pre-emergence
# How it was run: as §3
# Cotton [7] = assay: Postemergence Herbicidal Activity, Cotton; settings: Gossypium hirsutum, post-emergence
# How it was run: as §1
# Soybean [8] = assay: Postemergence Herbicidal Activity, Soybean; settings: Glycine max, post-emergence
# How it was run: as §2
# Field Corn [9] = assay: Postemergence Herbicidal Activity, Field Corn; settings: Zea mays, post-emergence
# How it was run: as §2
# Rice [10] = assay: Postemergence Herbicidal Activity, Rice; settings: Oryza sativa, post-emergence
# How it was run: as §2
# Wheat [11] = assay: Postemergence Herbicidal Activity, Wheat; settings: Triticum aestivum, post-emergence
# How it was run: as §2
# Field Bindweed [12] = assay: Postemergence Herbicidal Activity, Field Bindweed; settings: post-emergence
# How it was run: as §1
# Morningglory [13] = assay: Postemergence Herbicidal Activity, Morningglory; settings: Ipomoea, post-emergence
# How it was run: as §1
# Velvetleaf [14] = assay: Postemergence Herbicidal Activity, Velvetleaf; settings: Abutilon theophrasti, post-emergence
# How it was run: as §1
# Barnyardgrass [15] = assay: Postemergence Herbicidal Activity, Barnyardgrass; settings: Echinochloa crus-galli, post-emergence
# How it was run: as §3
# Green Foxtail [16] = assay: Postemergence Herbicidal Activity, Green Foxtail; settings: Setaria viridis, post-emergence
# How it was run: as §3
# Johnsongrass [17] = assay: Postemergence Herbicidal Activity, Johnsongrass; settings: Sorghum halepense, post-emergence
# How it was run: as §3
# weeds of wide spectrum = assay: weed control of paddy rice in pots, weeds; settings: 1 day and 11 day treatments, e.g. about 0.06 kg/ha or less
# Excerpt: (§4) In addition, tests of the effectiveness of weed control of paddy rice were done in pots containing clay loam paddy soil under water maintained at a depth of 3 cm. In one test tubers of narrowleaf arrowhead (Sagittaria pymaea) and rhizomes of flatsedge (Cyperus serotinus) were planted in pots at depth of 2 cm and 0.5 cm respectively, rice seedlings of 2.2 leaf state were transplanted in depth of 2 cm and 0 cm and a controlled amount of a 10% wp (wettable powder) formulation of the herbicidal compound in water was dropped into the water over the soil at 1 day and 11 days, respectively, after transplanting. In another test, seeds of various weed species (including barnyardgrass, Echinochoa crus-galli; small flower umbrellaplant, Cyperus difformis; bulrush, Scripus juncoides; Japanese ducksalad, Monochoria vaginalis; annual broadleaf weeds; and narrowleaf waterplantain, Alisma canaliculatium) were sown on the surface of the soil and the same (1 day and 11 day) herbicide applications were made.
# Rice [18] = assay: weed control of paddy rice in pots, transplanted rice; settings: rice transplanted at a depth of 2 cm
# Excerpt: as §4
# [19] = tested on: soybeans, corn, barley, wheat, rice (e.g. paddy rice), beans, peas, peanuts and potatoes; assay: selective herbicidal use on crops, especially preemergent
# broadleafed weeds = assay: postemergence control of broadleaf weeds
# broad leaf weeds = assay: preemergence use against broad leaf weeds; settings: with crops such as corn, rice, wheat and soybeans
# Field Corn [20] = assay: Preemergence Herbicidal Activity, Field Corn; settings: Zea mays, pre-emergence
# How it was run: as §2
# Rice [21] = assay: Preemergence Herbicidal Activity, Rice; settings: Oryza sativa, pre-emergence
# How it was run: as §2
# Field Bindweed [22] = assay: Preemergence Herbicidal Activity, Field Bindweed; settings: pre-emergence
# How it was run: as §1
# Morningglory [23] = assay: Preemergence Herbicidal Activity, Morningglory; settings: Ipomoea, pre-emergence
# How it was run: as §1
# Velvetleaf [24] = assay: Preemergence Herbicidal Activity, Velvetleaf; settings: Abutilon theophrasti, pre-emergence
# How it was run: as §1
# corn, wheat and soybeans = assay: postemergence crop selectivity
# cotton or soybeans = assay: preemergence crop selectivity; settings: rates below about 1/4 or 1/10 kg/ha
smiles,measurement,setting,value
"CCS(=O)(=O)Nc1cc(-n2nnn(CCCF)c2=O)c(F)cc1Cl [Compound 4, 1-[4-chloro-2-fluoro-5-(ethylsulfonylamino)phenyl]-1,4-dihydro-4-(3-fluoropropyl)-5H-tetrazol-5-one]",Preemergence Herbicidal Activity,Cotton [1]; 0.25 kg/ha,95 % Control
same,Preemergence Herbicidal Activity,Soybean [2]; 0.25 kg/ha,0 % Control
same,plant injury at 250 g/ha,Wheat [3]; 0.25 kg/ha,10%
same,pest or weed control at 250 g/ha,Barnyardgrass [4]; 0.25 kg/ha,80%
same,pest or weed control at 250 g/ha,Green Foxtail [5]; 0.25 kg/ha,20%
same,pest or weed control at 250 g/ha,Johnsongrass [6]; 0.25 kg/ha,30%
same,plant injury at 250 g/ha,Cotton [7]; 0.25 kg/ha,100%
same,plant injury at 250 g/ha,Soybean [8]; 0.25 kg/ha,60%
same,plant injury at 250 g/ha,Field Corn [9]; 0.25 kg/ha,50%
same,plant injury at 250 g/ha,Rice [10]; 0.25 kg/ha,20%
same,plant injury at 250 g/ha,Wheat [11]; 0.25 kg/ha,20%
same,pest or weed control at 250 g/ha,Field Bindweed [12]; 0.25 kg/ha,100%
same,pest or weed control at 250 g/ha,Morningglory [13]; 0.25 kg/ha,95%
same,pest or weed control at 250 g/ha,Velvetleaf [14]; 0.25 kg/ha,100%
same,pest or weed control at 250 g/ha,Barnyardgrass [15]; 0.25 kg/ha,50%
same,pest or weed control at 250 g/ha,Green Foxtail [16]; 0.25 kg/ha,80%
same,pest or weed control at 250 g/ha,Johnsongrass [17]; 0.25 kg/ha,20%
same,activity against weeds (paddy),weeds of wide spectrum,very high activity
same,selectivity (paddy rice),Rice [18],selectivity favorable to rice
same,effective rate,"[19]; ""effective at low rates, e.g. at about 0.5 kg/ha and below""",≤ 0.5 kg/ha
same,selective herbicidal effectiveness,[19]; especially preemergent use on crops,particularly effective
same,"control of broadleafed weeds, postemergent","broadleafed weeds; plantings of corn, wheat, barley, oats, rice and sorghum, about 30 to 250 g/ha, e.g. 125 g/ha",very good control
same,usefulness preemergently against broad leaf weeds,broad leaf weeds,particularly useful
"CCS(=O)(=O)N(c1cc(-n2nnn(CCCF)c2=O)c(F)cc1Cl)S(C)(=O)=O [Compound 11, 1-[4-chloro-2-fluoro-5-[(N--ethylsulfonyl-N--methylsulfonyl)amino]-phenyl]-1,4-dihydro-4-(3-fluoropropyl)-5H--tetrazol-5-one]",plant injury at 500 g/ha,"Cotton [1]; Gossypium hirsutum, pre-emergence, 0.5 kg/ha",100%
same,plant injury at 500 g/ha,"Soybean [2]; Glycine max, pre-emergence, 0.5 kg/ha",30%
same,plant injury at 500 g/ha,Field Corn [20]; 0.5 kg/ha,95%
same,plant injury at 500 g/ha,Rice [21]; 0.5 kg/ha,80%
same,plant injury at 500 g/ha,Wheat [3]; 0.5 kg/ha,80%
same,pest or weed control at 500 g/ha,Field Bindweed [22]; 0.5 kg/ha,100%
same,pest or weed control at 500 g/ha,Morningglory [23]; 0.5 kg/ha,100%
same,pest or weed control at 500 g/ha,Velvetleaf [24]; 0.5 kg/ha,100%
same,pest or weed control at 500 g/ha,Barnyardgrass [4]; 0.5 kg/ha,100%
same,pest or weed control at 500 g/ha,Green Foxtail [5]; 0.5 kg/ha,100%
same,pest or weed control at 500 g/ha,Johnsongrass [6]; 0.5 kg/ha,90%
same,plant injury at 500 g/ha,Cotton [7]; 0.5 kg/ha,100%
same,plant injury at 500 g/ha,Soybean [8]; 0.5 kg/ha,60%
same,plant injury at 500 g/ha,Field Corn [9]; 0.5 kg/ha,80%
same,plant injury at 500 g/ha,Rice [10]; 0.5 kg/ha,40%
same,plant injury at 500 g/ha,Wheat [11]; 0.5 kg/ha,70%
same,pest or weed control at 500 g/ha,Field Bindweed [12]; 0.5 kg/ha,100%
same,pest or weed control at 500 g/ha,Morningglory [13]; 0.5 kg/ha,80%
same,pest or weed control at 500 g/ha,Velvetleaf [14]; 0.5 kg/ha,100%
same,pest or weed control at 500 g/ha,Barnyardgrass [15]; 0.5 kg/ha,80%
same,pest or weed control at 500 g/ha,Green Foxtail [16]; 0.5 kg/ha,80%
same,pest or weed control at 500 g/ha,Johnsongrass [17]; 0.5 kg/ha,50%
same,results in postemergence use against broadleafed weeds,"broadleafed weeds; postemergence, corn, wheat and soybeans",particularly good results
same,"selectivity for crops, postemergence","corn, wheat and soybeans",favorable selectivity
CCCN(c1cc(-n2nnn(CCCF)c2=O)c(F)cc1Cl)S(=O)(=O)CC [Compound 14],plant injury at 1000 g/ha,"Cotton [1]; Gossypium hirsutum, pre-emergence, 1.0 kg/ha",100%
same,plant injury at 1000 g/ha,"Soybean [2]; Glycine max, pre-emergence, 1.0 kg/ha",95%
same,plant injury at 1000 g/ha,Field Corn [20]; 1.0 kg/ha,100%
same,plant injury at 1000 g/ha,Rice [21]; 1.0 kg/ha,100%
same,plant injury at 1000 g/ha,Wheat [3]; 1.0 kg/ha,100%
same,pest or weed control at 1000 g/ha,Field Bindweed [22]; 1.0 kg/ha,100%
same,pest or weed control at 1000 g/ha,Morningglory [23]; 1.0 kg/ha,100%
same,pest or weed control at 1000 g/ha,Velvetleaf [24]; 1.0 kg/ha,100%
same,pest or weed control at 1000 g/ha,Barnyardgrass [4]; 1.0 kg/ha,100%
same,pest or weed control at 1000 g/ha,Green Foxtail [5]; 1.0 kg/ha,100%
same,pest or weed control at 1000 g/ha,Johnsongrass [6]; 1.0 kg/ha,100%
same,plant injury at 1000 g/ha,Cotton [7]; 1.0 kg/ha,100%
same,plant injury at 1000 g/ha,Soybean [8]; 1.0 kg/ha,100%
same,plant injury at 1000 g/ha,Field Corn [9]; 1.0 kg/ha,100%
same,plant injury at 1000 g/ha,Rice [10]; 1.0 kg/ha,100%
same,plant injury at 1000 g/ha,Wheat [11]; 1.0 kg/ha,100%
same,pest or weed control at 1000 g/ha,Field Bindweed [12]; 1.0 kg/ha,100%
same,pest or weed control at 1000 g/ha,Morningglory [13]; 1.0 kg/ha,100%
same,pest or weed control at 1000 g/ha,Velvetleaf [14]; 1.0 kg/ha,100%
same,pest or weed control at 1000 g/ha,Barnyardgrass [15]; 1.0 kg/ha,100%
same,pest or weed control at 1000 g/ha,Green Foxtail [16]; 1.0 kg/ha,100%
same,pest or weed control at 1000 g/ha,Johnsongrass [17]; 1.0 kg/ha,100%
same,herbicide selectivity,cotton or soybeans,highly selective
